Data from patent publication EP2438921A1, “23-O-Acetylshengmanol-3-O-beta-D-xylopyranoside and its medical use” (Universität Innsbruck, priority 2010, dated 2012).

Key:
[1] = target: T1, GABAA receptors composed of α1, β2 and γ2S subunits (Homo sapiens, UniProt P14867+P18507+P47870); experiment: Modulation of GABA-induced chloride currents (IGABA), two-microelectrode voltage-clamp in Xenopus laevis oocytes expressing GABAA receptors; format: cell-based; conditions: for Stimulation of IGABA (%): 100 µM of compound, GABA EC3-10 concentration; for Maximal stimulation of IGABA: GABA EC3-10, α1β2γ2S receptors
T1 construct: expressed in transfected cells; host or cells: Xenopus laevis oocytes (stage V-VI), injected with cRNA transcribed from cDNA templates in pCMV vector; α1:β2:γ2S cRNA ratio 1:1:10
T1 sequence (P14867 28-456): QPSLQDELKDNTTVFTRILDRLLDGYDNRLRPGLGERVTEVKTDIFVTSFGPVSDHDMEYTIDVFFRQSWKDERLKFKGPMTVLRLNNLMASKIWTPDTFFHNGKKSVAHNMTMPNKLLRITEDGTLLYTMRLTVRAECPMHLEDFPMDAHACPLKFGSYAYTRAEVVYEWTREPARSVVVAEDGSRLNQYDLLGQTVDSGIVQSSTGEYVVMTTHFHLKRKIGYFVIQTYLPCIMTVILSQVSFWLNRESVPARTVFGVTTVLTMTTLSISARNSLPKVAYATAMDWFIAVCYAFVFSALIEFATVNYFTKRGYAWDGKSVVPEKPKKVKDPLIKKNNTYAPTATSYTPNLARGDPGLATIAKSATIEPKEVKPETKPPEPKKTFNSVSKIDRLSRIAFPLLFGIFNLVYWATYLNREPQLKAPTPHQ
T1 sequence (P47870 26-512): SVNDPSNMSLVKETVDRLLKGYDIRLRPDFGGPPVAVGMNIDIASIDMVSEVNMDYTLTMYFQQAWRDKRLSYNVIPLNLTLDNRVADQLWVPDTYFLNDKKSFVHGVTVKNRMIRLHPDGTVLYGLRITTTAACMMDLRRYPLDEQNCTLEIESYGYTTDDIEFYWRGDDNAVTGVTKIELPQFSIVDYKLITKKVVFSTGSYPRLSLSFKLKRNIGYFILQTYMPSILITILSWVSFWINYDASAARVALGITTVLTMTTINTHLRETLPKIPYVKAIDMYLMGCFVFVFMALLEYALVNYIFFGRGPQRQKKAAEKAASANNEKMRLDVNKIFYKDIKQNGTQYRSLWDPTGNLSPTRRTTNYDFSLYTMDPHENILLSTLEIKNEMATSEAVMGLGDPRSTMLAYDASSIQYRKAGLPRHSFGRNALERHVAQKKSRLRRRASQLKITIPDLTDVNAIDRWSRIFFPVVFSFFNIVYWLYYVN
T1 sequence (P18507 40-467 isoform P18507-1 limits assumed): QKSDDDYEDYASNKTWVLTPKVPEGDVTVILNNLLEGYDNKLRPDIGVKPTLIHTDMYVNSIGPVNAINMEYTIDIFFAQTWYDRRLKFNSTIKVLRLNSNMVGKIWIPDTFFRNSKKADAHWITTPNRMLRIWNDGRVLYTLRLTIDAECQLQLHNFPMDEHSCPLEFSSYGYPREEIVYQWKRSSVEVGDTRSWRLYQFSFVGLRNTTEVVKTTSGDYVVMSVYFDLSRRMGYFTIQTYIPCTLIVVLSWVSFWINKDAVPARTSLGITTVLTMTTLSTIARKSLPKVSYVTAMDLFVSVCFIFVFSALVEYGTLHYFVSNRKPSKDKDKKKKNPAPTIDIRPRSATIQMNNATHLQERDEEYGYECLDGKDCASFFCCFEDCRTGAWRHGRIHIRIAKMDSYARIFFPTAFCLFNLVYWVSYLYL
Procedure: Preparation of stage V-VI oocytes from Xenopus laevis, synthesis of capped off run-off poly(A^+) cRNA transcripts from linearized cDNA templates (pCMV vector) was performed as described (Khom et al. 2000). Briefly, female Xenopus laevis (NASCO, USA) were anaesthetised by exposing them for 15 minutes to a 0.2 % solution of MS-222 (methane sulfonate salt of 3-aminobenzoic acid ethyl ester; Sandoz) before surgically removing parts of the ovaries. Follicle membranes from isolated oocytes were enzymatically digested with 2 mg/ml collagenase (Type 1A, Sigma). One day after isolation, the oocytes were injected with about 10-50 nl of DEPC- treated water ([…], Sigma, Germany) containing the different cRNAs at a concentration of approximately 150 - 3000 ng/µl/subunit. The amount of cRNA was determined by means of a NanoDrop ND-1000 (Kisker-biotech, Steinfurt, Germany).
To ensure expression of the gamma-subunit, cRNAs were mixed in a ratio of 1:1:10 (Boileau et al., 2002). Oocytes were stored at 18°C in ND96 solution (Methfessel et al., 1986). Electrophysiological experiments were done using the two-microelectrode voyage-clamp method at a holding potential of -70 mV making use of a TURBO TEC 01C amplifier (npi electronic, Tamm, Germany) and an Axon Digidata 1322A interface (Molecular Devices, Sunnyvale, CA). Using pCLAMP v.9.2 data acquisition was carried out. The bath solution contained 90 mM NaCl, 1 mM KCI, 1 mM MgCl2·6H2O, 1 mM CaCl2 and 5 mM HEPES (pH 7.4). Microelectrodes were filled with 2M KCl and had resistances between 1 and 3 MΩ (Khom et al., 2007).
GABA and compound (extract, fraction or pure compound) were applied by means of fast perfusion system (see Baburin et al., 2006 for detail Drug or control solutions were applied by means of a TECAN Miniprep 60 permitting automation of the experiments. Oocytes with maximal current amplitudes >3 µA were discarded to exclude voltage-clamp errors (Khom et al., 2007).
Stimulation of chloride currents by modulators of the GABAA receptor was measured at a GABA concentration eliciting between 3 and 10% of the maximal current amplitude (EC3-10). The EC3-10 was determined at the beginning of each experiment. Enhancement of the chloride current was defined as (I(GABA+Comp)/IGABA) - 1, where I(GABA+Comp) is the current response in the presence of a given compound (extract, fraction or pure compound) and IGABA is the control GABA current. To measure the sensitivity of the GABAA receptor for a given compound, it was applied for an equilibration period of 1 minute before applying GABA ([…]). Concentration-response curves were generated and the data were fitted by non-iinear regression analysis using Origin software (OriginLab Corporation, USA). Data were fitted to the equation: (1)/(1 + (((EC50)/([Comp])))^nH), [formula] where nH is the Hill coefficient. Each data point represents the mean ± S.E. from at least 4 oocytes and ≥ 2 oocyte batches. Statistical significance was calculated using paired Student t-test with a confidence interval of p < 0.05.
As described above, dried and cut sub-aerial parts of A. racemosa were grinded and extracted with methanol. The resulting crude extract (A0) was subsequently partitioned between water and organic solvents of increasing polarity giving diethyl ether (A1), ethyl acetate (A2) and 1-butanol (A3) fractions. Obtained extracts and the remaining aqueous layer (A4) were tested for their ability to modulate IGABA at a concentration of 100 µg/mL. To analyse the modulation of IGABA by black cohosh extracts and isolated compounds, GABAA receptors composed of α1, β2 and γ2s subunits were expressed in Xenopus oocytes. Stimulation of IGABA was analysed by means of the 2-microelectrode voyage-clamp technique. These and all subsequent experiments were carried out at a GABA EC3-10 concentration.

mice [2] = experiment: Open Field Test (OF); format: in vivo, mice (C57BI/6N); conditions: for distance traveled in the open field in 10 min: 20 mg/kg/bodyweight i.p., 30 min prior to testing, control 38.2 ± 1.8 m
Procedure: (§1) Male mice (C57BI/6N) were obtained from Charles River Laboratories (Germany).
(§2) For maintenance mice were group housed with free access to food and water. Temperature was fixed to 23°C and 60% humidity with a 12 h light-dark cycle (lights on 0700-1900 hours). Mice at 3-8 months age were tested in all experiments (Khom et al., 2010).
(§3) Mice were transferred to the testing facility 24 h before commencement of experiments. Tests were performed between 0900 and 1300 hours. All tests were evaluated by an experimenter blinded to the administered compound, 30 min prior to testing animals were injected either with saline (0.9% NaCl-solution) as a control or with 23-O-acetylshengmanol-3-O-β-D-xylopyranosid (i.e., compound 4) and actein (i.e., compound 1), respectively (50 mg/250 µL stock prepared in 100% DMSO) at the indicated doses (0.2 mg/kg, 0.6 mg/kg, 2 mg/kg, 6 mg/kg, 20 mg/kg and 60 mg/kg bodyweight). All injection solutions contained 3% Polysorbat 80 and 10% of DMSO.
To determine explorative behaviour mice treated (n=9 for all doses) with compound 4 and control (n=11 mice were studied in the OF.
Open field behavior was tested over 10 min in a 50x50 cm box equipped with infrared rearing detection. Illumination was set to 150 lux. Explorative behavior was recorded and analyzed using the ActiMot 2 equipment (infrared beams) and software (TSE-systems, Bad Homburg, Germany). Arenas were subdivided into border (up to 8 cm from wall), center (20x20 cm, ie 16% of total area), and intermediate area according to the recommendations of EMPRESS (European Mouse Phenotyping Resource of Standardised Screens; http://empress.har.mrc.ac.uk).

mice [3] = experiment: Light/Dark Choice Test (LDT); format: in vivo, mice (C57BI/6N)
Procedure: as §1, §2, §3
Explorative behavior in a brightly lit area (400 lux) was investigated by insertion of a black box into the open field arena, covering one third of the space. Time spent and distance travelled was measured over a 10 min period in the open area. One small field directly at the entrance to the black box was assigned as transition zone. To reach the larger compartment assigned as open area, the mouse had to leave the dark area completely. Behaviour was recorded and analyzed by means of the ActiMot2 system and software (TSE-systems, Bad Homburg, Germany).

mice [4] = experiment: Stress-induced Hyperthermia Test (SIH); format: in vivo, mice (C57BI/6N)
Procedure: as §1, §2, §3
A temperature probe, lubricated with petrolatum, was inserted into the rectum of the mouse for a depth of up to 2 cm. […]
Prior to i.p injection of compound or saline the basal body temperature was determined. 3h after i.p injection, temperature was measured twice by means of a TH-5 Thermalert Monitoring Thermometer combined with a RET-3 rectal probe for mice. […]

[5] = target: T1, GABAA receptors composed of α1, β2 and γ2S subunits; experiment: Modulation of GABA-induced chloride currents (IGABA), two-microelectrode voltage-clamp in Xenopus laevis oocytes expressing GABAA receptors; format: cell-based; conditions: IGABA-max induced by application of 1mM GABA; data not shown

Compound | Stimulation of IGABA (%) [1] | EC50 [1] | Maximal stimulation of IGABA ([1]; compound 4 at 300 µM) | further results
CC(=O)OC1CC23CC24CCC(OC2OCC(O)C(O)C2O)C(C)(C)C4CCC3C2(C)CC3OC4(CC(C)C3C12C)OCC1(C)OC14 (centres unmarked) [Compound 2, 26-deoxyactein] | 10 ± 6% |  |  | 
C=C(C)[C@H]1O[C@@]23O[C@@H]1C[C@@H](C)[C@@H]2[C@@]1(C)CC[C@@]24C[C@@]25CC[C@H](O[C@@H]2OC[C@@H](O)[C@H](O)[C@H]2O)C(C)(C)[C@@H]5CC[C@H]4[C@]1(C)[C@H]3O [Compound 10, 25-O-anhydrocimigenol-3-O-β-D-xylopyranoside] | -76 ± 7% | 26 ± 7 µM |  | 
CC(=O)O[C@@H]1C[C@@]23C[C@@]24CC[C@H](O[C@@H]2OC[C@@H](O)[C@H](O)[C@H]2O)C(C)(C)[C@@H]4CC[C@H]3[C@]2(C)C[C@@H]3O[C@@]4(C[C@@H](C)[C@@H]3[C@@]12C)OC[C@@]1(C)O[C@@H]41 [Compound 3, 23-epi-26-deoxyactein] | 10 ± 4% |  |  | 
CC(=O)OC(C)(C)[C@H]1O[C@@]23O[C@@H]1C[C@@H](C)[C@@H]2[C@@]1(C)CC[C@@]24C[C@@]25CC[C@H](O[C@@H]2OC[C@H](O)[C@H](O)[C@H]2O)C(C)(C)[C@@H]5CC[C@H]4[C@]1(C)[C@H]3O [Compound 8, 25-O-acetylcimigenol-3-O-α-L-arabinopyranoside] |  | 26 ± 7 µM | 289 ± 45% | Emax at 300 µM ([1]; read-out: Maximal stimulation of IGABA, GABA EC3-10, α1β2γ2S receptors, compound 4 at 300 µM): < 300%
CC(=O)OC(CC(C)C1C(=O)C(O)C2(C)C3CCC4C(C)(C)C(OC5OCC(O)C(O)C5O)CCC45CC35CCC12C)C1OC1(C)C [Compound 4, 23-O-acetylshengmanol-3-O-β-D-xylopyranoside] |  | 27 ± 8 µM |  | IGABA enhancement, times stronger than the other isolated compounds ([1]; 100 µM, GABA EC3-10): about 10 times; distance traveled in the open field in 10 min (mice [2]): 22.6 ± 2.8 m; ambulation in all areas of the OF and overall ambulation compared to control (mice [2]; doses ≥2 mg/kg/bodyweight i.p.): significantly (p<0.05) decreased ambulation; reduced distance compared to control littermates (mice [2]; doses ≥20 mg/kg i.p.): approximately 50%; distance travelled in the lit area (mice [3]; i.p., data not shown): without significant effects; time spent in the lit area (400 Lux) (mice [3]; ip, 0.6 mg/kg, 10 min): 265 ± 52 s; Transitions from the dark compartment to the lit area (mice [3]; vs vehicle group, data not shown): did not differ; body temperature increase upon stress (ΔT) (mice [4]; 6 mg/kg/bodyweight i.p., 3h after injection, control 1.2 ± 0.1°): 0.1 ± 0.1 °; body temperature increase upon stress (ΔT) compared to control (mice [4]; i.p., doses of Figure 9): significantly (p<0.05) smaller increase; chloride currents induced in the absence of GABA [5]: ≤ 1 % of IGABA-max
C[C@@H]1C[C@H]2O[C@@]3(O[C@@H]2C(C)(C)O)[C@H](O)[C@@]2(C)[C@@H]4CC[C@H]5C(C)(C)[C@@H](O[C@@H]6OC[C@@H](O)[C@H](O)[C@H]6O)CC[C@@]56C[C@@]46CC[C@]2(C)[C@@H]13 [Compound 6, cimigenol-3-O-β-D-xylopyranoside] |  | 28 ± 17 µM | 256 ± 40% | 
CC(=O)O[C@@H]1C[C@@]23C[C@@]24CC[C@H](O[C@@H]2OC[C@@H](O)[C@H](O)[C@H]2O)C(C)(C)[C@@H]4CC=C3[C@]2(C)C[C@@H]3O[C@@]4(O)[C@H](OC(C)(C)[C@H]4O)[C@@H](C)[C@@H]3[C@@]12C [Compound 5, cimiracemoside F] | 5 ± 2% |  |  | 
CC(=O)O[C@H](C[C@@H](C)[C@H]1C(=O)[C@H](O)[C@@]2(C)[C@@H]3CC[C@H]4C(C)(C)[C@@H](O)CC[C@@]45C[C@@]35CC[C@]12C)[C@@H]1OC1(C)C [Compound 4a, 23-O-acetylshengmanol] | 64 ± 14% |  |  | 
CC(=O)O[C@@H]1C[C@@]23C[C@@]24CC[C@H](O[C@@H]2OC[C@@H](O)[C@H](O)[C@H]2O)C(C)(C)[C@@H]4CC[C@H]3[C@]2(C)C[C@@H]3O[C@]4(C[C@@H](C)[C@@H]3[C@@]12C)O[C@H](O)[C@@]1(C)O[C@@H]41 [Compound 1, actein] |  | 36 ± 14 µM | 378 ± 64% | distance traveled in the open field in 10 min (mice [2]): 30.6 ± 2.1 m
12-acetylacteol [Compound 1a] | 126 ± 29% |  |  | 
